Measurements as given in ChEMBL document CHEMBL1201862, “PubChem BioAssay data set” (2004).
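Method: 48-hour compound exposure of cells in 96-well plates, five concentrations, linear interpolation of endpoints. GI50 is the concentration that inhibits growth by half.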 Calls of active or inactive are those of the source. Cut-off read from the data, not from the text of the source: active = GI50 up to about 1.1 µM and inactive = higher.

Assays:
Experiment in all cases: DTP human tumour cell line panel, 48 h
T47D = tested on: T47D
NCI-H522 = tested on: NCI-H522
SK-MEL-5 = tested on: SK-MEL-5
SR = tested on: SR
RXF 393 = tested on: RXF 393
M14 = tested on: M14
HCC 2998 = tested on: HCC 2998
HCT-15 = tested on: HCT-15
A549 = tested on: A549
KM12 = tested on: KM12
COLO 205 = tested on: COLO 205
NCI/ADR-RES = tested on: NCI/ADR-RES
CCRF-CEM = tested on: CCRF-CEM
EKVX = tested on: EKVX
OVCAR-5 = tested on: OVCAR-5
SF-295 = tested on: SF-295
MDA-N = tested on: MDA-N
SF-539 = tested on: SF-539
MDA-MB-231 = tested on: MDA-MB-231
OVCAR-8 = tested on: OVCAR-8
U-251 = tested on: U-251
SNB-75 = tested on: SNB-75
NCI-H226 = tested on: NCI-H226
SK-MEL-28 = tested on: SK-MEL-28
IGROV-1 = tested on: IGROV-1
DU-145 = tested on: DU-145
NCI-H460 = tested on: NCI-H460
RPMI-8226 = tested on: RPMI-8226
TK-10 = tested on: TK-10
SF-268 = tested on: SF-268
SN12C = tested on: SN12C
ACHN = tested on: ACHN
SK-MEL-2 = tested on: SK-MEL-2
UACC-257 = tested on: UACC-257
UACC-62 = tested on: UACC-62
PC-3 = tested on: PC-3
NCI-H23 = tested on: NCI-H23
MCF7 = tested on: MCF7
MDA-MB-435 = tested on: MDA-MB-435
CAKI-1 = tested on: CAKI-1
HCT-116 = tested on: HCT-116
SK-OV-3 = tested on: SK-OV-3
HT-29 = tested on: HT-29
K562 = tested on: K562
SW-620 = tested on: SW-620
LOX IMVI = tested on: LOX IMVI
OVCAR-4 = tested on: OVCAR-4
HOP-92 = tested on: HOP-92
SNB-19 = tested on: SNB-19
HOP-62 = tested on: HOP-62
786-0 = tested on: 786-0
Hs-578T = tested on: Hs-578T
A498 = tested on: A498
HL-60 = tested on: HL-60
OVCAR-3 = tested on: OVCAR-3
Malme-3M = tested on: Malme-3M
UO-31 = tested on: UO-31
MOLT-4 = tested on: MOLT-4

`CC1(C)N=c2c(ncn2Cc2ccccc2)=C(C(N)=O)N1` was tested, and the GI50 (T47D) was > 100 µM (inactive), the GI50 (NCI-H522) was > 100 µM (inactive) and the GI50 (SK-MEL-5) was > 100 µM (inactive). The GI50 (SR) was > 100 µM (inactive), the GI50 (RXF 393) was > 100 µM (inactive) and the GI50 (M14) was > 100 µM (inactive). The GI50 (HCC 2998) was > 100 µM (inactive), the GI50 (HCT-15) was greater than 100 µM and the GI50 (A549) was > 100 µM (inactive). For the same compound, the GI50 (KM12) was > 100 µM (inactive), the GI50 (COLO 205) was > 100 µM (inactive) and the GI50 (NCI/ADR-RES) was > 100 µM (inactive). The GI50 (CCRF-CEM) was > 100 µM (inactive), the GI50 (EKVX) was > 100 µM (inactive) and the GI50 (OVCAR-5) was > 100 µM (inactive). The GI50 (SF-295) was > 100 µM (inactive), the GI50 (MDA-N) was > 100 µM (inactive) and the GI50 (SF-539) was > 100 µM (inactive). The GI50 (MDA-MB-231) was > 100 µM (inactive), the GI50 (OVCAR-8) was > 100 µM (inactive) and the GI50 (U-251) was > 100 µM (inactive). The GI50 (SNB-75) was > 100 µM (inactive), the GI50 (NCI-H226) was > 100 µM (inactive) and the GI50 (SK-MEL-28) was > 100 µM (inactive). The GI50 (IGROV-1) was > 100 µM (inactive), the GI50 (DU-145) was > 100 µM (inactive) and the GI50 (NCI-H460) was > 100 µM (inactive). For the same compound, the GI50 (RPMI-8226) was > 100 µM (inactive), the GI50 (TK-10) was > 100 µM (inactive) and the GI50 (SF-268) was > 100 µM (inactive). The GI50 (SN12C) was > 100 µM (inactive), the GI50 (ACHN) was 94.4 µM (inactive) and the GI50 (SK-MEL-2) was > 100 µM (inactive). The GI50 (UACC-257) was > 100 µM (inactive), the GI50 (UACC-62) was > 100 µM (inactive) and the GI50 (PC-3) was > 100 µM (inactive). The GI50 (NCI-H23) was > 100 µM (inactive), the GI50 (MCF7) was > 100 µM (inactive) and the GI50 (MDA-MB-435) was > 100 µM (inactive). For the same compound, the GI50 (CAKI-1) was > 100 µM (inactive), the GI50 (HCT-116) was > 100 µM (inactive) and the GI50 (SK-OV-3) was > 100 µM (inactive). For the same compound, the GI50 (HT-29) was > 100 µM (inactive), the GI50 (K562) was > 100 µM (inactive) and the GI50 (SW-620) was > 100 µM (inactive). The GI50 (LOX IMVI) was > 100 µM (inactive), the GI50 (OVCAR-4) was > 100 µM (inactive) and the GI50 (HOP-92) was > 100 µM (inactive). For the same compound, the GI50 (SNB-19) was > 100 µM (inactive), the GI50 (HOP-62) was > 100 µM (inactive) and the GI50 (786-0) was > 100 µM (inactive). The GI50 (Hs-578T) was > 100 µM (inactive), the GI50 (A498) was > 100 µM (inactive) and the GI50 (HL-60) was > 100 µM (inactive). The GI50 (OVCAR-3) was > 100 µM (inactive) and the GI50 (Malme-3M) was > 100 µM (inactive).
In the case of `CC(NC(=O)c1ccc(NP(=O)(OCc2ccc([N+](=O)[O-])o2)N(C)CCCCCl)cc1)c1ccc(OCC2CCCCC2)c(C(N)=O)c1` (stereo unspecified), the GI50 (T47D) is reported as 5.37 µM (inactive), the GI50 (NCI-H522) is reported as 15.5 µM (inactive) and the GI50 (SK-MEL-5) is reported as 4.56 µM (inactive). For the same compound, the GI50 (SR) was 10.5 µM (inactive), the GI50 (RXF 393) was 10.9 µM (inactive) and the GI50 (UO-31) was 43.4 µM (inactive). The GI50 (HCC 2998) was 11.4 µM (inactive), the GI50 (HCT-15) was 46 µM and the GI50 (A549) was 10.6 µM (inactive). The GI50 (KM12) was 13.8 µM (inactive), the GI50 (MOLT-4) was 9.71 µM (inactive) and the GI50 (COLO 205) was 10.9 µM (inactive). For the same compound, the GI50 (NCI/ADR-RES) was 61.8 µM (inactive), the GI50 (CCRF-CEM) was 0.904 µM (active) and the GI50 (OVCAR-5) was 25.4 µM (inactive). For the same compound, the GI50 (SF-295) was 15.5 µM (inactive), the GI50 (MDA-N) was 17.7 µM (inactive) and the GI50 (SF-539) was 16.5 µM (inactive). For the same compound, the GI50 (MDA-MB-231) was 14.9 µM (inactive), the GI50 (OVCAR-8) was 31.6 µM (inactive) and the GI50 (U-251) was 19.4 µM (inactive). The GI50 (SNB-75) was 11 µM (inactive), the GI50 (NCI-H226) was 16.4 µM (inactive) and the GI50 (SK-MEL-28) was 17 µM (inactive). For the same compound, the GI50 (IGROV-1) was 15.9 µM (inactive), the GI50 (DU-145) was 29.3 µM (inactive) and the GI50 (NCI-H460) was 17.1 µM (inactive). The GI50 (RPMI-8226) was 4.86 µM (inactive), the GI50 (TK-10) was 23.4 µM (inactive) and the GI50 (SF-268) was 13.3 µM (inactive). For the same compound, the GI50 (SN12C) was 18.9 µM (inactive), the GI50 (ACHN) was 29 µM (inactive) and the GI50 (SK-MEL-2) was 16.1 µM (inactive). The GI50 (UACC-257) was 13.4 µM (inactive), the GI50 (UACC-62) was 12.6 µM (inactive) and the GI50 (PC-3) was 19.5 µM (inactive). The GI50 (NCI-H23) was 16.9 µM (inactive), the GI50 (MCF7) was 3.15 µM (inactive) and the GI50 (MDA-MB-435) was 12 µM (inactive). The GI50 (CAKI-1) was 26.4 µM (inactive), the GI50 (HCT-116) was 16.2 µM (inactive) and the GI50 (SK-OV-3) was 21.6 µM (inactive). The GI50 (HT-29) was 18.3 µM (inactive), the GI50 (K562) was 17.3 µM (inactive) and the GI50 (SW-620) was 28.4 µM (inactive). For the same compound, the GI50 (LOX IMVI) was 13.7 µM (inactive), the GI50 (OVCAR-4) was 12.2 µM (inactive) and the GI50 (HOP-92) was 2.95 µM (inactive). For the same compound, the GI50 (SNB-19) was 28.2 µM (inactive), the GI50 (HOP-62) was 16.9 µM (inactive) and the GI50 (786-0) was 17.5 µM (inactive). For the same compound, the GI50 (Hs-578T) was 16.3 µM (inactive), the GI50 (A498) was 16.7 µM (inactive) and the GI50 (HL-60) was 16 µM (inactive). For the same compound, the GI50 (OVCAR-3) was 11.6 µM (inactive).
